{"source": "patent US8741862B2", "about": "“PHD2 inhibition for blood vessel normalization, and uses thereof” (VIB VZW, priority 2009, dated 2014)", "key": {"B16 tumor": {"tested_on": "B16 tumor", "assay": "Response of B16 tumors to suboptimal cisplatin chemotherapy in WT and PHD2+/− mice", "assay_type": "in vivo, mouse", "details": "for anti-tumor effect in PHD2+/− mice / anti-tumor effect in WT mice: B16 tumor", "protocol": "[…] TUMOR MODELS: 5 105 B16F10.9 melanoma and 105 Lewis lung carcinoma (LLC) cells were injected subcutaneously into the right flank or foot pad, respectively. […] Circulating tumor cells were scored on 1 ml of peripheral blood upon red blood cell lysis.\n[…] […] The mice were sacrificed at defined time intervals after cell inoculation or when tumors reached a maximum size of 2 cm3."}, "[1]": {"tested_on": "Lewis Lung Carcinoma (LLC)", "assay": "Response of LLC tumors to suboptimal doxorubicin chemotherapy in WT and PHD2+/− mice", "details": "doxorubicin 2.5 mg/kg 3×/week"}, "[2]": {"assay": "Cornea pocket assay with pellets containing VEGF or FGF-2", "assay_type": "in vivo, mouse", "text": "We also performed cornea pocket assays and implanted pellets, containing VEGF or FGF-2, in endothelial PHD2Cre/+ mice."}, "[3]": {"details": "cisplatin 2.5 mg/kg 3×/week, listed as Cisplatin"}, "[4]": {"details": "PHD2+/− hearts upon doxorubicin treatment"}, "[5]": {"details": "PHD2+/− hearts upon doxorubicin treatment, versus WT"}}, "note": "“And” between values parts separate entries of the source, which are not always exact repeats. Equal values may be shown once. Read-outs that look alike come from different tables or passages of the source.", "data": [{"molecule": "N.N.[Cl][Pt][Cl]", "note": "[cisplatin]", "values": [{"measurement": "anti-tumor effect in PHD2+/− mice", "setting": "B16 tumor; cisplatin 2.5 mg/kg 3×/week", "value": "effective"}, {"measurement": "anti-tumor effect in PHD2+/− mice", "setting": "B16 tumor; [3]", "value": "reduced the volume (A) and weight (B) of B16 tumor"}, {"measurement": "anti-tumor effect in WT mice", "setting": "B16 tumor; cisplatin 2.5 mg/kg 3×/week", "value": "does not kill B16 tumor cells"}, {"measurement": "anti-tumor effect in WT mice", "setting": "B16 tumor; [3]", "value": "not effective"}, {"measurement": "tumor size, smaller in PHD2+/− than WT mice", "setting": "B16 tumor; cisplatin 2.5 mg/kg 3×/week, B16 tumors, 11 days after initiation of chemotherapy", "value": 60, "unit": "%"}, {"measurement": "tumor apoptosis (active caspase 3)", "setting": "B16 tumor; tumors implanted in PHD2+/− mice upon cisplatin treatment", "value": "increased"}, {"measurement": "tumor proliferation", "setting": "B16 tumor; tumors implanted in PHD2+/− mice upon cisplatin treatment, compared to WT", "value": "reduced"}]}, {"molecule": "COc1cccc2c1C(=O)c1c(O)c3c(c(O)c1C2=O)C[C@@](O)(C(=O)CO)C[C@@H]3O[C@H]1C[C@H](N)[C@H](O)[C@H](C)O1", "note": "[doxorubicin]", "values": [{"measurement": "cardiac hypertrophy", "setting": "PHD1 and PHD3 deficient mice after 2 months of treatment", "value": "significant cardiac hypertrophy"}, {"measurement": "capillary perfusion", "setting": "[4]", "value": "preserved"}, {"measurement": "oxidative stress (cardiac ROS)", "setting": "[4]", "value": "reduced"}, {"measurement": "Brain Natriuretic Peptide (BNP) expression", "setting": "[5]", "value": "lower levels"}, {"measurement": "interstitial fibrosis", "setting": "[5]", "value": "reduced interstitial fibrosis"}, {"measurement": "ejection fraction (EF)", "setting": "PHD2+/− mice upon doxorubicin treatment", "value": "maintain or preserve the baseline EF levels"}, {"measurement": "capillary perfusion", "setting": "WT hearts upon doxorubicin treatment", "value": "not preserved"}, {"measurement": "cardiac damage", "setting": "doxorubicin 2.5 mg/kg 3×/week for four weeks, PHD2+/− mice", "value": "protected against cardiac damage"}, {"measurement": "ejection fraction (EF)", "setting": "wild-type mice upon doxorubicin treatment", "value": "decreases"}, {"measurement": "anti-tumor effect in PHD2+/− mice", "setting": "[1]", "value": "responsive"}, {"measurement": "anti-tumor effect in PHD2+/− mice", "setting": "[1]; listed as Doxorubicin", "value": "reduced the volume of LLC (Lewis lung carcinoma) tumor"}, {"measurement": "anti-tumor effect in WT mice", "setting": "[1]; WT mice", "value": "not effective"}]}, {"molecule": "FGF-2: growth factor implanted as pellet in cornea pocket assay", "values": [{"measurement": "branching points per mm2", "setting": "[2]; PHD2Cre/+ mice, N=4", "value": "580±87", "unit": "per mm2"}, {"measurement": "vessel area", "setting": "[2]; PHD2Cre/+ mice, N=4", "value": "33.4±4", "unit": "%"}, {"measurement": "branching points per mm2", "setting": "[2]; PHD2lox/+ mice, N=4", "value": "511±48", "unit": "per mm2"}]}, {"molecule": "VEGF", "values": [{"measurement": "vessel area", "setting": "[2]; PHD2Cre/+ mice, N=4", "value": "23.2±1.6", "unit": "%"}, {"measurement": "vessel area", "setting": "[2]; PHD2lox/+ mice, N=4", "value": "27.7±2.3", "unit": "%"}, {"measurement": "branching points per mm2", "setting": "[2]; mouse, in vivo", "value": "387±52 per mm2 and 345±60 per mm2"}]}]}
